Data: publication PMC11554305, “Functional identification of soluble uric acid as an endogenous inhibitor of CD38” (eLife, 2024)

How the values were obtained:
[1] = molecular target: T1, recombinant human CD38 (hCD38) (Homo sapiens, UniProt P28907); assay: CD38 cyclase activity, recombinant hCD38 (NGD substrate); format: biochemical; conditions: sUA 0–500 μM, Figure 1B
T1 construct: the commercial recombinant hCD38 without a transmembrane region was partially used in this study; purchased Sino Biological 10818-H08H
T1 sequence (P28907 43-300 limits assumed): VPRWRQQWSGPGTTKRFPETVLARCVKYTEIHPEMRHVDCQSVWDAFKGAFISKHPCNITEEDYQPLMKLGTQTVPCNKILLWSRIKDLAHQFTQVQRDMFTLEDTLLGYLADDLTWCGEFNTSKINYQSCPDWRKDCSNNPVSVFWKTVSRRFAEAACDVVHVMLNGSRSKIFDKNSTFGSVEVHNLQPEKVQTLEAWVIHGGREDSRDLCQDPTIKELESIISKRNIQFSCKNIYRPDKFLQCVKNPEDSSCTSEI
Procedure: The cyclase activity of CD38 was measured as previously described ([Higashida et al., 1999]; [Jin et al., 2007]). CD38 cyclase activity was measured using 60 μM NGD as a substrate in cyclase reaction buffer (100 mM KCl, 10 μM CaCl2, and 50 mM Tris-HCl, pH 6.6). Tissues were cut into pieces and suspended in the buffer (5 mM MgCl2, 10 mM Tris-HCl, pH 7.3) at 4°C for 30 min. Then, the suspension was homogenized on ice, and the supernatant was collected after centrifugation. To collect the crude membrane fractions, the supernatant was centrifuged at 105,000×g for 30 min. The final pellet was resuspended in 10 mM Tris-HCl solution (pH 6.6) for cyclase assay. Homogenates of THP-1 or A549 cells, and recombinant hCD38 were used directly for cyclase assays. The loading volume of enzyme was 4–20 μL, the total volume of reaction system was 3 mL. To detect enzyme inhibition, except when specified, the ligands were directly dissolved in cyclase reaction buffer before pH adjustment, after which, the pH was immediately adjusted to 6.6. […]
The reaction buffer for hydrolase or cyclase assays was excited at 300 nm, and fluorescence emission was measured every second at 410 nm by Shimazu RF-6000 spectrofluorometer. Hydrolase or cyclase activity was calculated from the linear portion of the time course by fitting a linear function to the data points recorded within 5 min.

[2] = molecular target: T2, poly(ADP-ribose) polymerase (PARP) (Homo sapiens, UniProt P09874); assay: PARP activity (colorimetric kit); format: biochemical; conditions: Figure 3—figure supplement 2C
T2 construct: purchased R&D Systems 4677-096-K
Procedure: The activities of NAMPT and PARP were measured using commercial kits, HT Universal Colorimetric PARP Assay Kit, and CycLex NAMPT Colorimetric Assay Kit Ver.2. The solutions of ligands were freshly prepared (pH was adjusted to 7.4) and were immediately used for enzyme assays.

A549 cells = assay: Intracellular NAD+ assay in A549 cells; format: cell-based, human; conditions: sUA 100 to 500 μM, 20 hr
Procedure: A549 cells were seeded in 24-well plates for NAD^+ assay. Briefly, when the confluence reached 80%, the culture medium in each well was discarded, and the cells were washed twice with sterile PBS and incubated in RPMI-1640 medium containing 1% FBS in the presence or absence of sUA (from 100 to 500 μM) for 20 hr. Then, the cells were washed twice with sterile PBS, after the second washing, PBS was completely removed and 100 μL 5% ice-cold perchloric acid (PCA) was added into each well. The plate was kept on ice for 2 hr, then cell samples were collected and centrifuged at 15,000 rpm, 4°C for 10 min. The supernatant was used for subsequent handling and measurement (see LC-MS/MS analysis).
(§1) As mentioned above, samples (cells, tissues, blood, or reaction buffer) were treated with ice-cold PCA, after extraction and centrifugation, the collected supernatant was appropriately diluted in 5% ice-cold PCA when applicable, and then was vortexed for 30 s and centrifuged at 15,000 rpm, 4°C for 5 min. […] All the samples after handling were immediately analyzed in this study without freezing and thawing.
(§2) The LC-MS/MS system consisted of a triple quadrupole LCMS-8050 (Shimadzu) and an LC-30A system (Shimadzu). […] NAD^+ and NMN were measured independently in this study, as their peaks were hardly separated within a short time.

recombinant hCD38 = molecular target: T3, recombinant hCD38 (Homo sapiens, UniProt P28907); assay: Metabolic assay of NAD+ (degradation by recombinant hCD38); format: biochemical; conditions: sUA 100, 200 or 500 μM; NAD+ 200 μM; hCD38 20 ng/mL; Figure 3F
T3 construct: the commercial recombinant hCD38 without a transmembrane region was partially used in this study; purchased Sino Biological 10818-H08H
T3 sequence (P28907 43-300 limits assumed): T1 sequence (P28907 43-300 limits assumed)
Procedure: NAD^+ degradation by recombinant hCD38 was detected in hydrolase reaction buffer. At first, sUA (100, 200, and 500 μM) or other ligands at 500 μM in hydrolase reaction buffer (250 mM sucrose, 40 mM Tris) was freshly prepared, then the pH was immediately adjusted to 7.4 by HCl. Recombinant hCD38 was added into the buffer of experimental groups at 20 ng/mL, then the buffer was maintained at 37°C. The substrate NAD^+ was dissolved in hydrolase reaction buffer (pH 7.4) at 10 mM, and the pH was further adjusted to 7.4. The reaction was started with the addition of NAD^+ in the buffer for each group (final concentration is 200 μM), including control group (recombinant hCD38 free). All the buffers were incubated at 37°C with constant stirring. […]
as §1, §2

primed WT BMDMs = assay: sUA uptake assay in primed WT BMDMs; format: cell-based, mouse; conditions: sUA 100, 200 or 500 μM, 2 or 15 hr
Procedure: WT BMDMs were primed with 100 ng/mL ultrapure LPS for 4 hr. Then, the cells were washed twice with sterile PBS, and maintained in RPMI-1640 medium containing sUA (100, 200, or 500 μM) for 2 or 15 hr. Subsequently, the cells were washed twice with ice-cold sterile PBS to terminate uptake, 100 μL 5% ice-cold PCA was added into each well. The plates were placed on ice for 2 hr, then cell samples were collected and centrifuged at 15,000 rpm, 4°C for 10 min. The supernatant was used for subsequent handling and measurement (see LC-MS/MS analysis).

T2 sequence (P09874 whole entry): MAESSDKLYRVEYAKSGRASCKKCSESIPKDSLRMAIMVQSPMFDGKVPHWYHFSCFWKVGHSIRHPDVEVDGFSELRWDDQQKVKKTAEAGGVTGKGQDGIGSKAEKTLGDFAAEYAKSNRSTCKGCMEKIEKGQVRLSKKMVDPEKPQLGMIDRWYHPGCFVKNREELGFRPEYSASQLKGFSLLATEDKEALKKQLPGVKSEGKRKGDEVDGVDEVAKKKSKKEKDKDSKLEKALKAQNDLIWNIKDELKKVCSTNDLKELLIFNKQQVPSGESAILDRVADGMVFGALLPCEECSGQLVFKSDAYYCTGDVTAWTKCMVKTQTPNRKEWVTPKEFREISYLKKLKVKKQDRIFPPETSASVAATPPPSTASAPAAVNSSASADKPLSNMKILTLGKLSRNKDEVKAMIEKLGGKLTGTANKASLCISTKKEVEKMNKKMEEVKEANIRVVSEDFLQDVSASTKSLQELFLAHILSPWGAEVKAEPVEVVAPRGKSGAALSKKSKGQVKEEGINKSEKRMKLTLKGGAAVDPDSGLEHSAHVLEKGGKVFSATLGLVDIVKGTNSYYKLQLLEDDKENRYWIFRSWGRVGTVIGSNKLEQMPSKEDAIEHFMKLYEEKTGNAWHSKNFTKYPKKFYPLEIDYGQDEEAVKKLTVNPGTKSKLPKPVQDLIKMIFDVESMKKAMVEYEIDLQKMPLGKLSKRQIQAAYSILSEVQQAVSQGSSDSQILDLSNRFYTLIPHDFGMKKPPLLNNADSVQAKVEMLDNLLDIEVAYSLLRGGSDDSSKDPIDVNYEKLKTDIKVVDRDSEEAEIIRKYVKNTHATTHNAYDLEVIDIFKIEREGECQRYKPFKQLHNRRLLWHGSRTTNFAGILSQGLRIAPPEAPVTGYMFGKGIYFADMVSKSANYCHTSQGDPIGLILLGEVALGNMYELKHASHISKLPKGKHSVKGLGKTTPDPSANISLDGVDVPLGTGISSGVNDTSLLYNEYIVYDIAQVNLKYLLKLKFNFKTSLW

O=c1[nH]c(=O)c2[nH]c(=O)[nH]c2[nH]1 [sUA, uric acid]
Ki [1]: 57.1 µM | Effect on PARP activity [2]: without affecting the activities | Intracellular NAD+ (A549 cells): boosted intracellular NAD^+ | NAD+ availability, degradation by recombinant hCD38 (recombinant hCD38): increased NAD^+ availability | sUA uptake (primed WT BMDMs): very low
